This is an account of results in patent publication US20250064093A1, “FERMENTED PH-INDEPENDENT SOLUTION SPOILAGE CONTROL IN FOOD SYSTEMS” (Third Wave Bioactives, LLC, priority 2023, published 2025).

For this assay, the system named is yeast. The assay is described as follows: Natural spoilage of chicken salad, growth of yeast. As to conditions: 500 ppm Nisin. The class given is cell-based. As for the experimental part: The chicken salad was freshly made and allowed to spoil naturally over time. To prevent the product from being spoiled by Lactic Acid Bacteria (LAB), which can cause an accumulation of lactic acid reducing the pH over time, Nisin preparation (500 ppm) was added. Treatments included a no preservative Control, 500 ppm Nisin, 0.1% Potassium sorbate +500 ppm Nisin (Ps+N), and 1% Bacillus fermentate +500 ppm Nisin (BA+N). Usage rates were in the range of typical inclusion in finished foods.

For the substance nisin, the “yeast counts compared to Bacillus-treated samples” value is “rose much higher”.
